Source: patent US11136311B2, “Heteroaromatic derivatives as NIK inhibitors” (Janssen Pharmaceutica NV, priority 2016, dated 2021)
Where two headings read alike, the source gives them in different places.

Key:
JJN-3 cells = test: Antiproliferative activity on JJN-3 (NIK translocated) multiple myeloma cells (CellTiter-Glo); type: cell-based, human; settings: JJN-3 (NIK translocated) cells, 96 hr, averaged values, read-out: JJN-3 Proliferation inhibition (IC50 (nM))
Method: (§1) Determination of antiproliferative activity on JJN-3 (NIK translocated) and KMS12-BM (NIK WT) multiple myeloma cells
(§2) All compounds tested were dissolved in DMSO and further dilutions were made in culture medium. Final DMSO concentration was 0.3% (v/v) in cell proliferation assays. Viability was assessed using CellTiter-Glo cell viability assay kit (Promega). The human JJN-3 and KMS12-BM cells (DSMZ) were cultured in RPMI 1640 medium supplemented with 2 mM L-glutamine, and 10% fetal calf serum (PAA). Cells were routinely kept as suspension cells at 37° C. in a humidified 5% CO2 atmosphere. Cells were passaged at a seeding density of 0.2×10^6/ml twice a week. Cells were seeded in black tissue culture treated 96-well plates (Perkin Elmer). Densities used for plating ranged from 15000 (JJN3) to 20000 (KMS12BM) cells per well in a total volume of 135 μl medium. Drugs and/or solvents were added (15 μl) to a final volume of 150 μl. Following 96 hr of treatment, plates were removed from the incubator and allowed to equilibrate to room temperature for approx 10 min. 75 μl CellTiter-Glo reagent was added to each well that was then covered (Perkin Elmer Topseal) and shaken on plate shaker for 10 min. Luminescence was measured on a HTS Topcount (Perkin Elmer). Within an experiment, the results for each treatment were the mean of 2 replicate wells. For initial screening purposes, compounds were tested using a 9 point dilution curve (serial 1:3 dilutions). For each experiment, controls (containing no drug) and a blank incubation (containing cells read at the time of compound addition) were run in parallel. The blank value was subtracted from all control and sample values. For each sample, the mean value for cell growth (in relative light units) was expressed as a percentage of the mean value for cell growth of the control.

KMS12-BM cells = test: Antiproliferative activity on KMS12-BM (NIK WT) multiple myeloma cells (CellTiter-Glo); type: cell-based, human; settings: KMS12-BM (NIK WT) cells, 96 hr, averaged values, read-out: KMS-12 Proliferation inhibition (IC50 (nM))
Method: as §1, §2

[1] = biological target: recombinant human NF-kappaB-inducing kinase (NIK/MAP3K14) (Homo sapiens (Human), UniProt Q99558); test: Inhibition of auto-phosphorylation of recombinant human NIK/MAP3K14 activity (AlphaScreen); type: biochemical; settings: averaged values over all measurements on all batches
Sequence of recombinant human NF-kappaB-inducing kinase (NIK/MAP3K14) (Q99558 whole entry): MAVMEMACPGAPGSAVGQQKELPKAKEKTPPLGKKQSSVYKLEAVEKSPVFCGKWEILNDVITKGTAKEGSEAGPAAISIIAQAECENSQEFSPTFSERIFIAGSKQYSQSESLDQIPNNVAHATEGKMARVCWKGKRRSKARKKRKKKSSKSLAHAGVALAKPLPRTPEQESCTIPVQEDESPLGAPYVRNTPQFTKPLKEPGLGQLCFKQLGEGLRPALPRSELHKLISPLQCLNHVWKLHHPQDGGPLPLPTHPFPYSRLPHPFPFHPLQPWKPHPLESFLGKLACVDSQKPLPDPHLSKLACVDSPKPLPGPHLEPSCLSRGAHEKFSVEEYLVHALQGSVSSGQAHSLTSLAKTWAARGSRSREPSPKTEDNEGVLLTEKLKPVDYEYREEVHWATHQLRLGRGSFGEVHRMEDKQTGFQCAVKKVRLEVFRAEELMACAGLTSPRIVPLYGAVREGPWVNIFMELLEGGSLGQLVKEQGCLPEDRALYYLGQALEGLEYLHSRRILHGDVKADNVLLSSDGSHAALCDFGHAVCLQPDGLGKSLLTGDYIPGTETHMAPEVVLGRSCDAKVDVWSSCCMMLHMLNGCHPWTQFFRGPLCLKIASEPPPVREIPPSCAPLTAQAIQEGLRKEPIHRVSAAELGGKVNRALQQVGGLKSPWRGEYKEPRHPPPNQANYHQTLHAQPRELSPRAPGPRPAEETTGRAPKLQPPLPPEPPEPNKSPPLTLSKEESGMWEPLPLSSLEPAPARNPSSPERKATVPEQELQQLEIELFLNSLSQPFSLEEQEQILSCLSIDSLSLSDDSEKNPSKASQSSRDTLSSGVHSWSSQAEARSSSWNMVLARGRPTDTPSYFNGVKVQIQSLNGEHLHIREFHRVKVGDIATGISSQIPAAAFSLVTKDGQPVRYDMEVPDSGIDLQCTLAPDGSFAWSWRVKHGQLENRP
Method: Inhibition of auto-phosphorylation of recombinant human NF-kappaB-inducing kinase (NIK/MAP3K14) activity (AlphaScreen®)
NIK/MAP3K14 auto-phosphorylation activity was measured using the AlphaScreen® (αscreen) format (Perkin Elmer). All compounds tested were dissolved in dimethyl sulfoxide (DMSO) and further dilutions were made in assay buffer. Final DMSO concentration was 1% (v/v) in assays. Assay buffer was 50 mM Tris pH 7.5 containing 1 mM EGTA (ethylene glycol tetraacetic acid), 1 mM DTT (dithiothreitol), 0.1 mM Na3VO4, 5 mM MgCl2, 0.01% Tween® 20. Assays were carried out in 384 well Alphaplates (Perkin Elmer). Incubations consisted of compound, 25 microM Adenosine-5′-triphosphate (ATP), and 0.2 nM NIK/MAP3K14. Incubations were initiated by addition of GST-tagged NIK/MAP3K14 enzyme, carried out for 1 h at 25° C. and terminated by addition of stop buffer containing anti-phospho-IKK Ser176/180 antibody. Protein A Acceptor and Glutathione-Donor beads were added before reading using an EnVision® Multilabel Plate Reader (Perkin Elmer). Signal obtained in the wells containing blank samples was subtracted from all other wells and IC50's were determined by fitting a sigmoidal curve to % inhibition of control versus Log10 compound concentration.

Compound	IC50 (JJN-3 cells; Homo sapiens, JJN-3, 96 h)	IC50 (KMS12-BM cells; Homo sapiens, KMS-12-BM, 96 h)	IC50 [1]	IC50 (KMS12-BM cells)	IC50 (JJN-3 cells)
Cc1cc(Nc2nccc(-c3cc(C#N)c4c(c3)[C@@](C)(CO)CN4)n2)n(C2CCS(=O)(=O)C2)n1 (mixture of isomers) [Compound 33]	1260 nM	~6170 nM	9.1 nM		
Cc1cc(Nc2nccc(-c3cc(C#N)c4c(c3)[C@@](C)(CO)CN4)n2)n(CC2CCCO2)n1 (single isomer, unassigned) [Compound 51]	~59 nM		4.1 nM	~1900 nM	
Cc1cc(Nc2nccc(-c3cc(C#N)c4c(c3)[C@@](C)(CO)CN4)n2)n(CC2CCCO2)n1 (single isomer, unassigned) [Compound 52]			6.9 nM	> 10000 nM	115 nM
Cc1cc(Nc2nccc(-c3cc(C#N)c4c(c3)[C@@](C)(CO)CN4)n2)n(CC2CCCCO2)n1 (single isomer, unassigned) [Compound 68]		> 10000 nM	5.3 nM		38 nM
Cc1cc(Nc2nccc(-c3cc(C#N)c4c(c3)[C@@](C)(CO)CN4)n2)n(CC2CCCCO2)n1 (single isomer, unassigned) [Compound 69]			5.8 nM	> 10000 nM	78 nM
COC(C)Cn1nc(C)cc1Nc1nccc(-c2cc(C#N)c3c(c2)[C@@](C)(CO)CN3)n1 (single isomer, unassigned) [Compound 77]	309 nM		13 nM	1580 nM	
COC(C)Cn1nc(C)cc1Nc1nccc(-c2cc(C#N)c3c(c2)[C@@](C)(CO)CN3)n1 (single isomer, unassigned) [Compound 78]			9.8 nM	9120 nM	457 nM
Cn1ccc(Nc2nccc(-c3cc(C#N)c4c(c3)C(C)(CO)CN4)n2)n1 (centres unmarked) [Compound 1]	250 nM	2430 nM	4 nM		
Cn1nccc1Nc1nccc(-c2cc(C#N)c3c(c2)C(C)(CO)CN3)n1 (centres unmarked) [Compound 2]	141 nM	794 nM	6.9 nM		
Cc1cc(Nc2nccc(-c3cc(C#N)c4c(c3)C(C)(CO)CN4)n2)n(C)n1 (centres unmarked) [Compound 3]	407 nM	~1230 nM	4.2 nM		
Cn1cc(Nc2nccc(-c3cc(C#N)c4c(c3)C(C)(CO)CN4)n2)cn1 (centres unmarked) [Compound 4]	~55 nM	162 nM	2.5 nM		
Cn1nc(C2(C)COC2)cc1Nc1nccc(-c2cc(C#N)c3c(c2)C(C)(CO)CN3)n1 (centres unmarked) [Compound 5]	708 nM	> 10000 nM	5.4 nM		
Cn1nc(C2CCCCC2)cc1Nc1nccc(-c2cc(C#N)c3c(c2)C(C)(CO)CN3)n1 (centres unmarked) [Compound 6]	347 nM	> 10000 nM	7.6 nM		
CC(C)(C)c1cc(Nc2nccc(-c3cc(C#N)c4c(c3)C(C)(CO)CN4)n2)n(CCO)n1 (centres unmarked) [Compound 10]	724 nM	> 10000 nM	13 nM		
Cc1cc(Nc2nccc(-c3cc(C#N)c4c(c3)C(C)(CO)CN4)n2)n(CCN(C)C)n1 (centres unmarked) [Compound 11]	576 nM	3700 nM			
CN1CCC(n2cc(Nc3nccc(-c4cc(C#N)c5c(c4)C(C)(CO)CN5)n3)cn2)CC1 (centres unmarked) [Compound 12]	~45 nM	~214 nM	3.6 nM		
COCCn1nc(C)cc1Nc1nccc(-c2cc(C#N)c3c(c2)C(C)(CO)CN3)n1 (centres unmarked) [Compound 14]	234 nM	~7240 nM	7.1 nM		
COCCn1ccc(Nc2nccc(-c3cc(C#N)c4c(c3)C(C)(CO)CN4)n2)n1 (centres unmarked) [Compound 16]	525 nM	7080 nM	2.8 nM		
Cn1ccc(Nc2nccc(-c3cc(C#N)c4c(c3)[C@@](C)(CO)CN4)n2)n1 [Compound 19]	163 nM	2720 nM	2.2 nM		
CC(C)n1ccc(Nc2nccc(-c3cc(C#N)c4c(c3)C(C)(CO)CN4)n2)n1 (centres unmarked) [Compound 20]	229 nM	2510 nM	3.4 nM		

Compound	IC50 (JJN-3 cells; Homo sapiens, JJN-3, 96 h)	IC50 (KMS12-BM cells; Homo sapiens, KMS-12-BM, 96 h)	IC50 [1]	IC50 (KMS12-BM cells)	IC50 (JJN-3 cells)
CC1(CO)CNc2c(C#N)cc(-c3ccnc(Nc4cc[nH]n4)n3)cc21 (centres unmarked) [Compound 21]	813 nM	1020 nM	2.9 nM		
Cn1nc(Nc2nccc(-c3cc(C#N)c4c(c3)C(C)(CO)CN4)n2)cc1C(=O)N1CCC(F)(F)CC1 (centres unmarked) [Compound 22]	2340 nM	> 10000 nM	18 nM		
COCCCn1ccc(Nc2nccc(-c3cc(C#N)c4c(c3)C(C)(CO)CN4)n2)n1 (centres unmarked) [Compound 23]	295 nM	3890 nM	4.9 nM		
CC(C)n1nccc1Nc1nccc(-c2cc(C#N)c3c(c2)C(C)(CO)CN3)n1 (centres unmarked) [Compound 24]	646 nM	> 10000 nM	10 nM		
Cn1nc(C(=O)NC2CCOCC2)cc1Nc1nccc(-c2cc(C#N)c3c(c2)C(C)(CO)CN3)n1 (centres unmarked) [Compound 25]	1900 nM	1510 nM	8.1 nM		
Cn1nc(Nc2nccc(-c3cc(C#N)c4c(c3)C(C)(CO)CN4)n2)cc1C1(C)COC1 (centres unmarked) [Compound 26]	457 nM	~2950 nM	10 nM		
COCCCn1nccc1Nc1nccc(-c2cc(C#N)c3c(c2)C(C)(CO)CN3)n1 (centres unmarked) [Compound 27]	389 nM	~4570 nM	13 nM		
Cn1nc(C(=O)N2CCC(F)(F)CC2)cc1Nc1nccc(-c2cc(C#N)c3c(c2)C(C)(CO)CN3)n1 (centres unmarked) [Compound 28]	2570 nM	> 10000 nM	~17 nM		
Cn1nc(Nc2nccc(-c3cc(C#N)c4c(c3)C(C)(CO)CN4)n2)cc1C1CC1 (centres unmarked) [Compound 29]	~603 nM	1440 nM	4.4 nM		
CC1(CO)CNc2c(C#N)cc(-c3ccnc(Nc4cnn(CC(F)F)c4)n3)cc21 (centres unmarked) [Compound 30]	47 nM	~170 nM	3.2 nM		
CC(C)n1ccc(Nc2nccc(-c3cc(C#N)c4c(c3)[C@](C)(CO)CN4)n2)n1 [Compound 31]	589 nM	> 10000 nM	14 nM		
Cn1cc(Cl)c(Nc2nccc(-c3cc(C#N)c4c(c3)C(C)(CO)CN4)n2)n1 (centres unmarked) [Compound 32]	7760 nM	> 10000 nM	27 nM		
Cn1ccc(Nc2nccc(-c3cc(C#N)c4c(c3)[C@](C)(CO)CN4)n2)n1 [Compound 34]	1180 nM	~10000 nM	10 nM		
Cc1c(Nc2nccc(-c3cc(C#N)c4c(c3)C(C)(CO)CN4)n2)cnn1C (centres unmarked) [Compound 36]	174 nM	7590 nM	2.6 nM		
CN1CCC(n2ccc(Nc3nccc(-c4cc(C#N)c5c(c4)[C@@](C)(CO)CN5)n3)n2)CC1 [Compound 37]	162 nM	182 nM	2 nM		
CN1CCC(n2nccc2Nc2nccc(-c3cc(C#N)c4c(c3)[C@@](C)(CO)CN4)n2)CC1 [Compound 38]	3980 nM	3890 nM	47 nM		
Cn1nc(Nc2nccc(-c3cc(C#N)c4c(c3)[C@@](C)(CO)CN4)n2)cc1CN1CCOCC1 [Compound 39]	1440 nM	> 10000 nM	32 nM		
C[C@]1(CO)CNc2c(C#N)cc(-c3ccnc(Nc4ccn(CC5CC5)n4)n3)cc21 [Compound 40]	295 nM	562 nM	2.2 nM		
Cn1nc(Cl)cc1Nc1nccc(-c2cc(C#N)c3c(c2)[C@@](C)(CO)CN3)n1 [Compound 41]	78 nM	~479 nM	2.1 nM		
Cn1nc(Nc2nccc(-c3cc(C#N)c4c(c3)[C@@](C)(CO)CN4)n2)cc1Cl [Compound 43]	234 nM	933 nM	2.6 nM		
